Structures can show the parent of a compound that is named as a salt.
Legend:
Format in all cases: biochemical
thrombin [1] = molecular target: T1, thrombin (Homo sapiens, UniProt P00734); assay: Chemiluminescent substrate cleavage by purified thrombin (luciferase/ATP luminescence); conditions: for RLU thrombin: 30 nM thrombin final, instead of plasma, assay as example 1; for RLU thrombin/RLU plasmin: ratio of signal with 30 nM thrombin to signal with 40 nM plasmin
T1 construct: allowing factor Xa to convert prothrombin to thrombin
Description: (§1) In a 96-wells plate (final volume 120 μl), the following components were added:
(§2) 10 μl MeO—(CH2CH2O)2-acetyl-beta-Ala-Gly-Arg-aminoluciferin TFA salt (thrombin specific substrate (10 mM)), or pyroGlu-Phe-Lys-aminoluciferin TFA salt (plasmin specific substrate (10 mM))
(§3) 2 μl Luciferase (Sigma, 72 μg/ml),
(§4) 2 μl ATP (Sigma, 0.33 mM),
(§5) 14 μl TRIS/NaCl buffer (50 mM TRIS and 150 mM NaCl, pH 7.4).
(§6) This reaction mixture was mixed, followed by the addition of 4 μl TRIS/NaCl buffer with Ca^2+ to start thrombin generation. Final concentration 16.7 mM. The resultant was mixed rapidly, and thrombin generation was monitored in a Fluostar. The settings of the Fluostar were: 140 cycli of 30 seconds, Gain: Maximum=4095. Prior to measurement, 25 μl reaction mixture was taken from the well having a total volume of 120 μl. This was pipetted in a 384-well multi-titre plate suitable for measuring luminescence. The measurement was started immediately. Luminescence is depicted in Relative luminescence units (RLU).
Various substrates were analyzed using thrombin and plasmin The assay was essentially performed as described in example 1. However, instead of plasma, plasmin or thrombin were added to final concentrations of 30 nM (thrombin) or 40 nM (plasmin).

plasmin = plasmin (Homo sapiens, UniProt P00747); assay: Chemiluminescent substrate cleavage by purified plasmin (luciferase/ATP luminescence); conditions: for RLU plasmin: 40 nM plasmin final, instead of plasma, assay as example 1
Description: as §1, §2, §3, §4, §5, §6
Various substrates were analyzed using thrombin and plasmin The assay was essentially performed as described in example 1. […]

thrombin [2] = molecular target: T1, thrombin; assay: Chemiluminescent substrate cleavage by purified thrombin (luciferase/ATP luminescence); conditions: 150 nM thrombin vs 40 nM plasmin in TBS buffer

Chain of plasmin (P00747 581-810 limits assumed, species assumed): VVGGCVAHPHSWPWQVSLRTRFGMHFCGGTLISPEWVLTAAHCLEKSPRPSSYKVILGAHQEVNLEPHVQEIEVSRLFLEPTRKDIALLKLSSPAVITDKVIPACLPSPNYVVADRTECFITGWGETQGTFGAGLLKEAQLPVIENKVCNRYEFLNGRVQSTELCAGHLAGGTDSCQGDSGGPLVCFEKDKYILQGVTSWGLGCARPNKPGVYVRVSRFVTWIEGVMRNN
Chain of plasmin (P00747 97-580 partner limits assumed, species assumed): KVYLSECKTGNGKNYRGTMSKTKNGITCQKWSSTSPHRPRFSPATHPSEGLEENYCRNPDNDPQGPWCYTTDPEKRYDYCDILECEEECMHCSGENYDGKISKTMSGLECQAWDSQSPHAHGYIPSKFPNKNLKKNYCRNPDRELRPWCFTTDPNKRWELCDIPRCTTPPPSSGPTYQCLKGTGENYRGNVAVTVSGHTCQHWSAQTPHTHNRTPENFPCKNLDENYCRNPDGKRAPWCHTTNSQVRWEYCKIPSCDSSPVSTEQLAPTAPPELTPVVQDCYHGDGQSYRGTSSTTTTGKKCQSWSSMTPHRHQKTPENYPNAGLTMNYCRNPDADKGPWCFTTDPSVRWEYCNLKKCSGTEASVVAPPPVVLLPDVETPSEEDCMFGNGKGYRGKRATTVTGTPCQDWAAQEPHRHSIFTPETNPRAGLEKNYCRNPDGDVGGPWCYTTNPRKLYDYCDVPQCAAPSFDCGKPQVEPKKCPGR

Compound | RLU thrombin (thrombin [1]) [RLU] | RLU thrombin/RLU plasmin (thrombin [1]) | RLU plasmin (plasmin) [RLU] | reactivity of thrombin and plasmin on the S1 substrate (FIG. 1a) (thrombin [2]) | reactivity of thrombin and plasmin on the S2 substrate (FIG. 1b) (plasmin; 4 nM plasmin vs 15 nM thrombin in TBS buffer)
COCC(=O)NCCC(=O)NCC(=O)N[C@@H](CCCNC(=N)N)C(=O)Nc1ccc2nc(C3=N[C@@H](C(=O)O)CS3)sc2c1.O=C(O)C(F)(F)F [CH3O-acetyl-beta-Ala-Gly-Arg-aminoluciferine•TFA] | 925567 | 3.1 | 294631 | – | –
COCCOCCOCC(=O)NC(Cc1ccccc1)C(=O)NC(CCCNC(=N)N)C(=O)Nc1ccc2nc(C3=NC(C(=O)O)CS3)sc2c1.O=C(O)C(F)(F)F (stereo not drawn) [CH3O—(CH2CH2O)2-acetyl-Phe-Arg-aminoluciferine•TFA] | 300946 | 0.40 | 759874 | – | –
COCCOCCOCCOCCOCC(=O)NC(Cc1ccccc1)C(=O)NC(CCCNC(=N)N)C(=O)Nc1ccc2nc(C3=NC(C(=O)O)CS3)sc2c1.O=C(O)C(F)(F)F (stereo not drawn) [CH3O—(CH2CH2O)4-acetyl-Phe-Arg-aminoluciferine•TFA] | 340768 | 0.27 | 1282351 | – | –
COCCOCCOCCOCCOCC(=O)NCCC(=O)NCC(=O)N[C@@H](CCCNC(=N)N)C(=O)Nc1ccc2nc(C3=N[C@@H](C(=O)O)CS3)sc2c1.O=C(O)C(F)(F)F [CH3O—(CH2CH2O)4-acetyl-beta-Ala-Gly-Arg-aminoluciferine•TFA] | 293198 | 2.2 | 134983 | – | –
N=C(N)NCCC[C@H](NC(=O)CNC(=O)CNC(=O)OCc1ccccc1)C(=O)Nc1ccc2nc(C3=N[C@@H](C(=O)O)CS3)sc2c1.O=C(O)C(F)(F)F [Cbz-Gly-Gly-Arg-aminoluciferine•TFA] | 771302 | 5.3 | 146486 | – | –
N=C(N)NCCC[C@H](NC(=O)CNC(=O)CCN)C(=O)Nc1ccc2nc(C3=N[C@@H](C(=O)O)CS3)sc2c1.O=C(O)C(F)(F)F.O=C(O)C(F)(F)F [H-beta-Ala-Gly-Arg-aminoluciferine•2TFA] | 292161 | 4.7 | 62387 | – | –
COCCOCCOCC(=O)NCCC(=O)NCC(=O)NC(CCCNC(=N)N)C(=O)Nc1ccc2nc(C3=NC(C(=O)O)CS3)sc2c1.O=C(O)C(F)(F)F (stereo not drawn) [MeO—(CH2CH2O)2-acetyl-beta-Ala-Gly-Arg-aminoluciferin TFA salt] | – | – | – | more susceptible for their respective enzyme | –
COCCOCCOCC(=O)NCCC(=O)NCC(=O)N[C@@H](CCCNC(=N)N)C(=O)Nc1ccc2nc(C3=N[C@@H](C(=O)O)CS3)sc2c1 [MeO—(CH2CH2O)2-acetyl-beta-Ala-Gly-Arg-aminoluciferin TFA salt] | 814171 | 3.2 | 251299 | – | –
NCCCC[C@H](NC(=O)[C@H](Cc1ccccc1)NC(=O)[C@@H]1CCC(=O)N1)C(=O)Nc1ccc2nc(C3=N[C@@H](C(=O)O)CS3)sc2c1 [PyroGlu-Phe-Lys-aminoluciferine•TFA, pyroGlu-Phe-Lys-aminoluciferin TFA salt] | 139546 | 0.07 | 1999875 | – | more susceptible for their respective enzyme
